Data published in PubChem BioAssay AID1963436 (Molecular Pharmacology Branch, DTP, NCI, 2024).

System: OVCAR-5 complex spheroid (HUVEC/MSC), viability % T/C
Assay: Anticancer human tumor OVCAR-5 cell line growth inhibition [Asc];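 also: spheroids exposed to agents for 7 days before readout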;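 as to viability, T/C: 100% = DMSO vehicle-treated wells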
Conditions: for IC50: curve of first compound; for viability, T/C: stronger effect = lower value
Method in brief: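 Stromal components (HUVEC and hMSC) are co-assembled with the cancer cells into multicellular spheroids. Drugs are then added singly or paired, at concentrations falling by half-log increments from a clinically achievable maximum, capped at 10 microM without known Cmax.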

[1] = second compound 0.1 µM, first compound 0.0316 µM
[2] = second compound 0.1 µM, first compound 0.1 µM
[3] = second compound 0.1 µM, first compound 0.316 µM
[4] = second compound 0.1 µM, first compound 1 µM
[5] = second compound 0.316 µM, first compound 0.0316 µM
[6] = second compound 0.316 µM, first compound 0.1 µM
[7] = second compound 0.316 µM, first compound 0.316 µM
[8] = second compound 0.316 µM, first compound 1 µM
[9] = second compound 1 µM, first compound 0.0316 µM
[10] = second compound 1 µM, first compound 0.1 µM
[11] = second compound 1 µM, first compound 0.316 µM
[12] = second compound 1 µM, first compound 1 µM
[13] = second compound 3.16 µM, first compound 0.0316 µM
[14] = second compound 3.16 µM, first compound 0.1 µM
[15] = second compound 3.16 µM, first compound 0.316 µM
[16] = second compound 3.16 µM, first compound 1 µM
[17] = second compound 10 µM, first compound 0.0316 µM
[18] = second compound 10 µM, first compound 0.1 µM
[19] = second compound 10 µM, first compound 0.316 µM
[20] = second compound 10 µM, first compound 1 µM
[21] = second compound 0.1 µM, first compound 0.00316 µM
[22] = second compound 0.1 µM, first compound 0.01 µM
[23] = second compound 0.316 µM, first compound 0.00316 µM
[24] = second compound 0.316 µM, first compound 0.01 µM
[25] = second compound 1 µM, first compound 0.00316 µM
[26] = second compound 1 µM, first compound 0.01 µM
[27] = second compound 3.16 µM, first compound 0.00316 µM
[28] = second compound 3.16 µM, first compound 0.01 µM
[29] = second compound 10 µM, first compound 0.00316 µM
[30] = second compound 10 µM, first compound 0.01 µM

SMILES: C=CC(=O)N1CCN(c2nc(=O)n(-c3c(C)ccnc3C(C)C)c3nc(-c4c(O)cccc4F)c(F)cc23)C(C)C1 (stereo not given) + Cc1c(S(C)(=O)=O)c(-c2cc(F)cc(N3CCN(c4ccc(NS(=O)(=O)c5ccc(NC(CCN6CCC(C(=O)OCCCP(=O)(O)O)CC6)CSc6ccccc6)c(S(=O)(=O)C(F)(F)F)c5)cc4)CC3)c2)c(-c2ccc(Cl)cc2)n1C(C)C
- IC50 (second compound 0.1 µM): > 10000 nM
- IC50 (second compound 0.316 µM): > 10000 nM
- IC50 (second compound 1 µM): > 10000 nM
- IC50 (second compound 3.16 µM): > 10000 nM
- IC50 (second compound 10 µM): > 10000 nM
- viability, T/C [1]: 100%
- viability, T/C [2]: 109%
- viability, T/C [3]: 98.7%
- viability, T/C [4]: 111%
- viability, T/C (second compound 0.1 µM, first compound 3.16 µM): 114%
- viability, T/C (second compound 0.1 µM, first compound 10 µM): 97.5%
- viability, T/C [5]: 93.4%
- viability, T/C [6]: 103%
- viability, T/C [7]: 95.5%
- viability, T/C [8]: 96.9%
- viability, T/C (second compound 0.316 µM, first compound 3.16 µM): 112%
- viability, T/C (second compound 0.316 µM, first compound 10 µM): 102%
- viability, T/C [9]: 89.8%
- viability, T/C [10]: 101%
- viability, T/C [11]: 111%
- viability, T/C [12]: 98.2%
- viability, T/C (second compound 1 µM, first compound 3.16 µM): 97.5%
- viability, T/C (second compound 1 µM, first compound 10 µM): 106%
- viability, T/C [13]: 95.4%
- viability, T/C [14]: 102%
- viability, T/C [15]: 109%
- viability, T/C [16]: 103%
- viability, T/C (second compound 3.16 µM, first compound 3.16 µM): 108%
- viability, T/C (second compound 3.16 µM, first compound 10 µM): 98.1%
- viability, T/C [17]: 119%
- viability, T/C [18]: 136%
- viability, T/C [19]: 142%
- viability, T/C [20]: 139%
- viability, T/C (second compound 10 µM, first compound 3.16 µM): 144%
- viability, T/C (second compound 10 µM, first compound 10 µM): 145%

SMILES: COc1c(OCCCN2CCOCC2)ccc2c3n(c(=NC(=O)c4cnc(N)nc4)nc12)CCN3 + Cc1c(S(C)(=O)=O)c(-c2cc(F)cc(N3CCN(c4ccc(NS(=O)(=O)c5ccc(NC(CCN6CCC(C(=O)OCCCP(=O)(O)O)CC6)CSc6ccccc6)c(S(=O)(=O)C(F)(F)F)c5)cc4)CC3)c2)c(-c2ccc(Cl)cc2)n1C(C)C
- IC50 (second compound 0.1 µM): 28 nM
- IC50 (second compound 0.316 µM): 18.1 nM
- IC50 (second compound 1 µM): 17.9 nM
- IC50 (second compound 3.16 µM): 15.4 nM
- IC50 (second compound 10 µM): 17.7 nM
- viability, T/C [21]: 81.8%
- viability, T/C [22]: 73.3%
- viability, T/C [1]: 46.5%
- viability, T/C [2]: 22%
- viability, T/C [3]: 14.2%
- viability, T/C [4]: 5.21%
- viability, T/C [23]: 74.7%
- viability, T/C [24]: 63.4%
- viability, T/C [5]: 37%
- viability, T/C [6]: 20.3%
- viability, T/C [7]: 9.08%
- viability, T/C [8]: 2.87%
- viability, T/C [25]: 68.8%
- viability, T/C [26]: 65.4%
- viability, T/C [9]: 35.3%
- viability, T/C [10]: 10.8%
- viability, T/C [11]: 5.94%
- viability, T/C [12]: 2.46%
- viability, T/C [27]: 64.5%
- viability, T/C [28]: 63.7%
- viability, T/C [13]: 29.7%
- viability, T/C [14]: 10.2%
- viability, T/C [15]: 3.29%
- viability, T/C [16]: 1.07%
- viability, T/C [29]: 86.5%
- viability, T/C [30]: 68.7%
- viability, T/C [17]: 31.2%
- viability, T/C [18]: 7.93%
- viability, T/C [19]: 2.43%
- viability, T/C [20]: 1.35%

SMILES: NC(=O)C(=Cn1cnc(-c2cc(C(F)(F)F)cc(C(F)(F)F)c2)n1)c1cncnc1 + Cc1c(S(C)(=O)=O)c(-c2cc(F)cc(N3CCN(c4ccc(NS(=O)(=O)c5ccc(NC(CCN6CCC(C(=O)OCCCP(=O)(O)O)CC6)CSc6ccccc6)c(S(=O)(=O)C(F)(F)F)c5)cc4)CC3)c2)c(-c2ccc(Cl)cc2)n1C(C)C
- IC50 (second compound 0.1 µM): 199 nM
- IC50 (second compound 0.316 µM): 137 nM
- IC50 (second compound 1 µM): 106 nM
- IC50 (second compound 3.16 µM): 63.9 nM
- IC50 (second compound 10 µM): 66.8 nM
- viability, T/C (second compound 0.1 µM, first compound 0.000949 µM): 106%
- viability, T/C (second compound 0.1 µM, first compound 0.003 µM): 99.1%
- viability, T/C (second compound 0.1 µM, first compound 0.00949 µM): 91.7%
- viability, T/C (second compound 0.1 µM, first compound 0.03 µM): 79.6%
- viability, T/C (second compound 0.1 µM, first compound 0.0949 µM): 82.2%
- viability, T/C (second compound 0.1 µM, first compound 0.3 µM): 34.8%
- viability, T/C (second compound 0.316 µM, first compound 0.000949 µM): 100%
- viability, T/C (second compound 0.316 µM, first compound 0.003 µM): 96.2%
- viability, T/C (second compound 0.316 µM, first compound 0.00949 µM): 93.7%
- viability, T/C (second compound 0.316 µM, first compound 0.03 µM): 77.6%
- viability, T/C (second compound 0.316 µM, first compound 0.0949 µM): 60.3%
- viability, T/C (second compound 0.316 µM, first compound 0.3 µM): 29.3%
- viability, T/C (second compound 1 µM, first compound 0.000949 µM): 98.3%
- viability, T/C (second compound 1 µM, first compound 0.003 µM): 103%
- viability, T/C (second compound 1 µM, first compound 0.00949 µM): 79.7%
- viability, T/C (second compound 1 µM, first compound 0.03 µM): 79%
- viability, T/C (second compound 1 µM, first compound 0.0949 µM): 53.1%
- viability, T/C (second compound 1 µM, first compound 0.3 µM): 19.1%
- viability, T/C (second compound 3.16 µM, first compound 0.000949 µM): 97.1%
- viability, T/C (second compound 3.16 µM, first compound 0.003 µM): 98.5%
- viability, T/C (second compound 3.16 µM, first compound 0.00949 µM): 91.8%
- viability, T/C (second compound 3.16 µM, first compound 0.03 µM): 66.3%
- viability, T/C (second compound 3.16 µM, first compound 0.0949 µM): 41.9%
- viability, T/C (second compound 3.16 µM, first compound 0.3 µM): 17%
- viability, T/C (second compound 10 µM, first compound 0.000949 µM): 119%
- viability, T/C (second compound 10 µM, first compound 0.003 µM): 121%
- viability, T/C (second compound 10 µM, first compound 0.00949 µM): 111%
- viability, T/C (second compound 10 µM, first compound 0.03 µM): 85.2%
- viability, T/C (second compound 10 µM, first compound 0.0949 µM): 34.5%
- viability, T/C (second compound 10 µM, first compound 0.3 µM): 8.64%

SMILES: NC1CCC(NC2CC2c2ccccc2)CC1 (stereo not given) + Cc1c(S(C)(=O)=O)c(-c2cc(F)cc(N3CCN(c4ccc(NS(=O)(=O)c5ccc(NC(CCN6CCC(C(=O)OCCCP(=O)(O)O)CC6)CSc6ccccc6)c(S(=O)(=O)C(F)(F)F)c5)cc4)CC3)c2)c(-c2ccc(Cl)cc2)n1C(C)C
- IC50 (second compound 0.1 µM): > 100 nM
- IC50 (second compound 0.316 µM): > 100 nM
- IC50 (second compound 1 µM): > 100 nM
- IC50 (second compound 3.16 µM): > 100 nM
- IC50 (second compound 10 µM): > 100 nM
- viability, T/C (second compound 0.1 µM, first compound 0.000316 µM): 86%
- viability, T/C (second compound 0.1 µM, first compound 0.001 µM): 103%
- viability, T/C [21]: 89.5%
- viability, T/C [22]: 94.1%
- viability, T/C [1]: 103%
- viability, T/C [2]: 92.3%
- viability, T/C (second compound 0.316 µM, first compound 0.000316 µM): 87.9%
- viability, T/C (second compound 0.316 µM, first compound 0.001 µM): 95.6%
- viability, T/C [23]: 85%
- viability, T/C [24]: 81.9%
- viability, T/C [5]: 90.3%
- viability, T/C [6]: 93.1%
- viability, T/C (second compound 1 µM, first compound 0.000316 µM): 94.7%
- viability, T/C (second compound 1 µM, first compound 0.001 µM): 94.2%
- viability, T/C [25]: 90.7%
- viability, T/C [26]: 81%
- viability, T/C [9]: 92.4%
- viability, T/C [10]: 86.3%
- viability, T/C (second compound 3.16 µM, first compound 0.000316 µM): 94.9%
- viability, T/C (second compound 3.16 µM, first compound 0.001 µM): 95.5%
- viability, T/C [27]: 83.7%
- viability, T/C [28]: 76%
- viability, T/C [13]: 93.2%
- viability, T/C [14]: 87.8%
- viability, T/C (second compound 10 µM, first compound 0.000316 µM): 115%
- viability, T/C (second compound 10 µM, first compound 0.001 µM): 110%
- viability, T/C [29]: 120%
- viability, T/C [30]: 107%
- viability, T/C [17]: 104%
- viability, T/C [18]: 112%
